This is an account of results in ChEMBL document CHEMBL3259766, “Design, synthesis and biological evaluation of benzylisoquinoline derivatives as multifunctional agents against Alzheimer's disease” (Bioorg Med Chem Lett, 2014).

Series [1] has as its target Acetylcholinesterase (Electrophorus electricus, UniProt O42275). The series is described as follows: Inhibition of electric eel AChE using acetylthiocholine iodide as substrate preincubated with enzyme for 6 mins followed by substrate addition by Ellman's method. (In general: Ellman's reagent forms a yellow product with free thiols.)
Series [2] deals with Cholinesterase (Equus caballus, UniProt P81908). The series is described as follows: Inhibition of BuChE in equine serum using S-butyrylthiocholine iodide as substrate preincubated with enzyme for 6 mins followed by substrate addition by Ellman's method.
Series [3] in a line: Selectivity index, ratio of IC50 for BuChE in equine serum to IC50 for electric eel AChE.
Series [4] deals with Acetylcholinesterase (Homo sapiens, UniProt P22303). The series is described as follows: Inhibition of AChE in human erythrocytes using acetylthiocholine iodide as substrate preincubated with enzyme for 20 mins followed by substrate addition by Ellman's method. The format is cell-based.
For series [5], the target named is Cholinesterase (Homo sapiens, UniProt P06276). The series is described as follows: Inhibition of BuChE in human serum using S-butyrylthiocholine iodide as substrate preincubated with enzyme for 20 mins followed by substrate addition by Ellman's method.
Series [6] has as its target Amyloid-beta precursor protein (Homo sapiens) (UniProt P05067). The series is described as follows: Inhibition of amyloid beta (1 to 42) (unknown origin) self-aggregation at 20 uM after 46 to 48 hrs by thioflavin T based fluorometric assay.
The species entered for series [7] is Homo sapiens. The series is described as follows: Selectivity index, ratio of IC50 for BuChE in human serum to IC50 for AChE in human erythorcytes. The format is cell-based.
Series [8] can be described thus: Cytotoxicity against human SH-SY5Y cells assessed as cell viability at 0.1 uM after 24 hrs by MTT assay. The format is cell-based. The following applies: read-out: Activity. (Formazan colour is commonly taken as a measure of viable cells.)
Series [9] in a line: Cytotoxicity against human SH-SY5Y cells assessed as cell viability at 0.5 uM after 24 hrs by MTT assay. The format is cell-based. Conditions: read-out: Activity.
Series [10] is described as follows: Cytotoxicity against human SH-SY5Y cells assessed as cell viability at 1 uM after 24 hrs by MTT assay. Format: cell-based. The following applies: read-out: Activity.
Series [11] in a line: Cytotoxicity against human SH-SY5Y cells assessed as cell viability at 2 uM after 24 hrs by MTT assay. The format is cell-based. The following applies: read-out: Activity.
Series [12] in a line: Cytotoxicity against human SH-SY5Y cells assessed as cell viability at 5 uM after 24 hrs by MTT assay. The format is cell-based. The following applies: read-out: Activity.
Series [13] in a line: Cytotoxicity against human SH-SY5Y cells assessed as cell viability at 10 uM after 24 hrs by MTT assay. The format is cell-based. The following applies: read-out: Activity.

Sequence of Acetylcholinesterase (Homo sapiens, UniProt P22303) (P22303 whole entry): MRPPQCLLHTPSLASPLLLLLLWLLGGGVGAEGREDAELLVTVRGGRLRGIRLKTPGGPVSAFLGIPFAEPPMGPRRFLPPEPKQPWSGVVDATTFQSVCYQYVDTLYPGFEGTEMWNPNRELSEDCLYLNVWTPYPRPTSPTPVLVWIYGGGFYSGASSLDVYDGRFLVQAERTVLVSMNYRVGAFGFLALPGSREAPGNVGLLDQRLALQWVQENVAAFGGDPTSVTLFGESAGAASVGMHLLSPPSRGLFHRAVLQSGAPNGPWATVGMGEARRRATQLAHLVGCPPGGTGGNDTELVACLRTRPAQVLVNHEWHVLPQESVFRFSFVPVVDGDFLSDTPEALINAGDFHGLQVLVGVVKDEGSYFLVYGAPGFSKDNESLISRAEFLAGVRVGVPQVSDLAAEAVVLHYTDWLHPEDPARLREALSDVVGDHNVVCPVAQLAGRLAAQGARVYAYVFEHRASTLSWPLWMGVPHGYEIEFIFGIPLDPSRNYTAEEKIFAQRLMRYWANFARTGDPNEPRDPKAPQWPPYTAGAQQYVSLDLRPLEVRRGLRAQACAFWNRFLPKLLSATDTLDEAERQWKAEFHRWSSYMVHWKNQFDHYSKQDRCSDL
Sequence of Cholinesterase (Equus caballus, UniProt P81908) (P81908 whole entry): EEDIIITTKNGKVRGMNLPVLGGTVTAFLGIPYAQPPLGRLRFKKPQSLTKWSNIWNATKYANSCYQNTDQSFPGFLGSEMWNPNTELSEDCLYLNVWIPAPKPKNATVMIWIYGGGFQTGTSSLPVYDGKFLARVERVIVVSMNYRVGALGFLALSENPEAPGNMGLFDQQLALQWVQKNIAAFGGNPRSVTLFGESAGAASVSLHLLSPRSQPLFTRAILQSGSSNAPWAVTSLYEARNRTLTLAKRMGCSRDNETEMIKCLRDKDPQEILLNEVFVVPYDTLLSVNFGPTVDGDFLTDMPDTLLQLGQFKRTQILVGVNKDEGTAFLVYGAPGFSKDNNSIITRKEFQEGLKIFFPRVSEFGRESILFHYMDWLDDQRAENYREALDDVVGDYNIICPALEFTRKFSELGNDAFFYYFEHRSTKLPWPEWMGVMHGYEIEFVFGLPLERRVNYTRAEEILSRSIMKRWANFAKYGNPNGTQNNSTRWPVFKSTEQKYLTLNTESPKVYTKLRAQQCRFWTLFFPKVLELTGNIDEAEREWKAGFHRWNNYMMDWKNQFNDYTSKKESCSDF
Sequence of Acetylcholinesterase (Electrophorus electricus, UniProt O42275) (O42275 whole entry): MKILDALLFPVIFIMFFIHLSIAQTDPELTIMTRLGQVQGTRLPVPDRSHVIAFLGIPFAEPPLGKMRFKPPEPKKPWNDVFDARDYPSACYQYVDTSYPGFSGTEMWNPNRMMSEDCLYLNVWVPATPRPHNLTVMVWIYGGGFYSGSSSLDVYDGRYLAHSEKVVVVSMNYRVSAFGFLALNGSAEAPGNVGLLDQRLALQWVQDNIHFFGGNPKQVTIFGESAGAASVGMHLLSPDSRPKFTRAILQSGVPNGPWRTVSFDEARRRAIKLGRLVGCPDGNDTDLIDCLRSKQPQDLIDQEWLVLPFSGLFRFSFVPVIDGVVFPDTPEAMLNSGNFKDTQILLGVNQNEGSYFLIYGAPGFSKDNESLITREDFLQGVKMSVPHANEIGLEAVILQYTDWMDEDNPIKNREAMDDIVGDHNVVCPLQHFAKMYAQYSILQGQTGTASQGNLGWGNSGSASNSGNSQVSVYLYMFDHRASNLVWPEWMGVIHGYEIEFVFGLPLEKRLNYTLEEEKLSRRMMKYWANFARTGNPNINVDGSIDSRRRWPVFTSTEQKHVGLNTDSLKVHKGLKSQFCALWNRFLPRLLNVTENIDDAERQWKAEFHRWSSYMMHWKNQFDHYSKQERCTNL
Sequence of Amyloid-beta precursor protein (Homo sapiens) (P05067 whole entry): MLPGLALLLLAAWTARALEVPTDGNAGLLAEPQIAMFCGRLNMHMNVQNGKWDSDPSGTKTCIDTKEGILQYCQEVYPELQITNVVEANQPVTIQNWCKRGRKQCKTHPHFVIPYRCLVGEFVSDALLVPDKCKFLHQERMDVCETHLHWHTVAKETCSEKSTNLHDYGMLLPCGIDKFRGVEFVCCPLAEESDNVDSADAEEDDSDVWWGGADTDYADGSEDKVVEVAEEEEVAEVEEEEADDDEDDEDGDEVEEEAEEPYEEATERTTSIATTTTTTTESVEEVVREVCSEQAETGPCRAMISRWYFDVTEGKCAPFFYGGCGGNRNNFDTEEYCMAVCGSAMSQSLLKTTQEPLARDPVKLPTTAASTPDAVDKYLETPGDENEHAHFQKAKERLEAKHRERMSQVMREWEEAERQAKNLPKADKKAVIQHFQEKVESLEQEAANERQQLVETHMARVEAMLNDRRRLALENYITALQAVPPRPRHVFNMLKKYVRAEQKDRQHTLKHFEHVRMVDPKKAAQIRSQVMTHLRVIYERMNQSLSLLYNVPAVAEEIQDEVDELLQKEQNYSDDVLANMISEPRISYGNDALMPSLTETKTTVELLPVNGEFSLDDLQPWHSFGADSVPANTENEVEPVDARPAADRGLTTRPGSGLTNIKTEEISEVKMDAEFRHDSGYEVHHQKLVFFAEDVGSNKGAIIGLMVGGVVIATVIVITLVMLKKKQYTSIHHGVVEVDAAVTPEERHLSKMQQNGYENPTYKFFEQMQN
Sequence of Cholinesterase (Homo sapiens, UniProt P06276) (P06276 whole entry): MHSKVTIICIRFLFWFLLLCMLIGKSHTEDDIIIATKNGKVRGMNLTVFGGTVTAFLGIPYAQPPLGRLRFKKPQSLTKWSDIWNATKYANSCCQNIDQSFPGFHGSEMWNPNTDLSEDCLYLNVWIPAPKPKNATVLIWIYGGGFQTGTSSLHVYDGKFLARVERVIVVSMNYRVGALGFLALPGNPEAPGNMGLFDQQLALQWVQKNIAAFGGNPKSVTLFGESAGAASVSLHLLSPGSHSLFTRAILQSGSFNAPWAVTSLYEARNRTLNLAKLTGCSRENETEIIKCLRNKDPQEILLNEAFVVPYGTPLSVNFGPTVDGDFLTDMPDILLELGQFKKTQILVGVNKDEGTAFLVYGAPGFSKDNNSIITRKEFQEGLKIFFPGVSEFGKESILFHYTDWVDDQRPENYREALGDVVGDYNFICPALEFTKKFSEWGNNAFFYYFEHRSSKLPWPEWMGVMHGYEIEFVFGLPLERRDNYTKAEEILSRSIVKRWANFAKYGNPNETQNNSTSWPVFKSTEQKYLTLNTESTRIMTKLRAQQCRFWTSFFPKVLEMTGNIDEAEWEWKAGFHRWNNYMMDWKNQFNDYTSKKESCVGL

What is called IC50 is the concentration needed to halve the response being measured. Broadly, the inhibition is how much of the control response was suppressed. High values mean a response far below the control, low ones a response near the control. Take `COc1cc2c(cc1OC)C(Cc1ccc(OCCCCCCN3CCC(c4ccccc4)CC3)cc1)NCC2` (configuration not stated): the IC50 in [1] worked out at 6.69 µM; in [2], 7.99 µM; in [4] it was 9.33 µM; in series [5], 9.29 µM. For the same compound, the Ratio IC50 in [3] was 1.19. Moreover, in series [6], the inhibition came to 61.2%.

For the compound `CCN(CC)CCCCCCCOc1ccc(CC2NCCc3cc(OC)c(OC)cc32)cc1` (configuration not stated), the 50% inhibitory concentration (IC50) was determined as 4.67 µM in [1] and 9.13 µM in series [2]. Further, the Ratio IC50 in [3] was determined as 1.96. Further, the inhibition in series [6] was determined as 43.9%.

`COc1cc2c(cc1OC)C(Cc1ccc(OCCCCCCN3CCN(c4ccccc4)CC3)cc1)NCC2` (configuration not stated): the IC50 was determined as 17.1 µM in series [1], 8.78 µM in series [2], 16.3 µM in [4] and 12.9 µM in [5]. The Ratio IC50 in series [3] was 0.51. In [6], this compound showed an inhibition of 65.8%.

For the compound `CCN(CC)CCCCOc1ccc(CC2NCCc3cc(OC)c(OC)cc32)cc1` (configuration not stated), the IC50 in series [1] was found to be 7.58 µM; in series [2] it was 15.3 µM. Further, in series [3], the Ratio IC50 is 2.02. The compound further had an inhibition in series [6] of 47.3%.

Take `COc1cc2c(cc1OC)C(Cc1ccc(OCCCCCCN(C)C)cc1)NCC2` (configuration not stated): the IC50 turned out to be 3.14 µM in series [1], 8.65 µM in series [2], 7.13 µM in series [4] and 3.43 µM in series [5]. Besides, the results for the Ratio IC50 in series [3] and in series [7] were 2.75 and 0.48, respectively. Further, the inhibition in series [6] was determined as 55.3%.

With `CCN(CC)CCCCCCCCOc1ccc(CC2NCCc3cc(OC)c(OC)cc32)cc1` (configuration not stated), the IC50 turned out to be 6.33 µM in series [1] and 20.1 µM in [2]. In addition, the Ratio IC50 in series [3] is 3.17. For the same compound, the inhibition in [6] was found to be 39.6%.

Regarding `CCCN(CCC)CCCCCCOc1ccc(CC2NCCc3cc(OC)c(OC)cc32)cc1` (configuration not stated), the IC50 was 3.01 µM in series [1], 4.32 µM in series [2], 3.46 µM in series [4] and 11.2 µM in series [5]. Besides, the values for the Ratio IC50 in series [3] and in series [7] were 1.44 and 3.23, respectively. Besides, the inhibition in [6] was determined as 51.2%.

As to `CCN(CC)CCCCCOc1ccc(CC2NCCc3cc(OC)c(OC)cc32)cc1` (configuration not stated), the figures for the half-inhibitory concentration (IC50) in series [1] and in series [2] were 7.02 µM and 10.3 µM, respectively. For the same compound, the Ratio IC50 in [3] was 1.46. The same compound returned an inhibition in [6] of 34.3%.

For the compound `COc1cc2c(cc1OC)C(Cc1ccc(OCCCCCCN3CCCCC3)cc1)NCC2` (configuration not stated), the IC50 was 1.14 µM in [1], 2.51 µM in [2], 2.14 µM in series [4] and 3.25 µM in series [5]. Also, the Ratio IC50 in [3] turned out to be 1.96; in series [7] it was 1.69. Further, the inhibition in [6] was found to be 76.4%.

On to `COc1cc2c(cc1OC)C(Cc1ccc(OCCCCCCN3CCCCC3C)cc1)NCC2` (configuration not stated), for which the IC50 amounted to 0.95 µM in series [1], 3.13 µM in series [2], 2.2 µM in series [4] and 5.83 µM in [5]. Further, the Ratio IC50 in [3] was 3.29; in series [7], 1.49. Further, the inhibition in series [6] is 78.4%. In addition, the viability at 24 h, 0.1 µM in series [8] came out at 96.8%. In addition, in [9], the viability at 24 h, 0.5 µM came to 98.8%. Further, the viability at 24 h, 1 µM in [10] stood at 96.8%. Moreover, the viability at 24 h, 2 µM in series [11] is 96.1%. Moreover, in [12], the viability at 24 h, 5 µM was 94.5%. For the same compound, in series [13], the viability at 24 h, 10 µM amounted to 91.1%.

As to `CCCCN(CCCC)CCCCCCOc1ccc(CC2NCCc3cc(OC)c(OC)cc32)cc1` (configuration not stated), the IC50 was 3.43 µM in series [1], 3.46 µM in [2], 3.85 µM in series [4] and 6.02 µM in series [5]. Besides, the figures for the Ratio IC50 in [3] and in [7] were 1.01 and 1.56, respectively. This compound returned an inhibition in series [6] of 51.4%.

Turning to `COc1cc2c(cc1OC)C(Cc1ccc(OCCCCCCN3CCN(Cc4ccccc4)CC3)cc1)NCC2` (configuration not stated), the IC50 is 53.5 µM in series [1], 10.5 µM in series [2], 5.59 µM in [4] and 21.7 µM in series [5]. For the same compound, the results for the Ratio IC50 in series [3] and in [7] were 0.2 and 3.88, respectively. For the same compound, the inhibition in [6] was determined as 61.4%.

For `COc1cc2c(cc1OC)C(Cc1ccc(O)cc1)NCC2` (configuration not stated), the IC50 in series [1] is over 100 µM; in series [2], 39.7 µM; in series [4], over 100 µM; in [5], 46.8 µM. This compound returned an inhibition in series [6] of 36%.

For the compound `CCN(CC)CCCCCCOc1ccc(CC2NCCc3cc(OC)c(OC)cc32)cc1` (configuration not stated), the IC50 amounted to 2.28 µM in [1], 4.95 µM in series [2], 4.99 µM in series [4] and 16.7 µM in [5]. Moreover, the results for the Ratio IC50 in series [3] and in series [7] were 2.17 and 3.35, respectively. This compound gave an inhibition in [6] of 56.4%.

Consider `COc1cc2c(cc1OC)C(Cc1ccc(OCCCCCCN3CCC(O)CC3)cc1)NCC2` (configuration not stated), for which the IC50 in series [1] was determined as 13.3 µM; in series [2], 14.2 µM; in series [4], 9.59 µM; in series [5], 23.7 µM. Further, the values for the Ratio IC50 in series [3] and in series [7] were 1.07 and 2.47, respectively. The compound also returned an inhibition in series [6] of 62.1%.

In the case of `COc1cc2c(cc1OC)C(Cc1ccc(OCCCCCCN3CCOCC3)cc1)NCC2` (configuration not stated), the IC50 in [1] is 28.6 µM; in series [2] it was 13 µM; in [4], 35.5 µM; in series [5], 10.6 µM. Further, the Ratio IC50 stood at 0.45 in series [3] and 0.29 in series [7]. This compound also gave an inhibition in series [6] of 57.4%.

Consider `CCN(CC)CCCOc1ccc(CC2NCCc3cc(OC)c(OC)cc32)cc1` (configuration not stated), for which the half-maximal inhibitory concentration (IC50) in series [1] is 13.2 µM; in series [2] it was 20.8 µM. Further, the Ratio IC50 in series [3] came to 1.57. The compound further came in with an inhibition in series [6] of 41.1%.

For the compound `COc1cc2c(cc1OC)C(Cc1ccc(OCCCCCCN3CCCC3)cc1)NCC2` (configuration not stated), the IC50 in series [1] is 1.28 µM; in series [2], 2.34 µM; in series [4] it was 2.98 µM; in series [5] it was 2.27 µM. Besides, the Ratio IC50 in series [3] came to 2.05; in series [7] it was 0.76. Moreover, the inhibition in series [6] came to 69%.

`COc1cc2c(cc1OC)C(Cc1ccc(OCCCCCCN3CCCC3C)cc1)NCC2` (configuration not stated): the IC50 in series [1] was 1.34 µM; in series [2], 3.35 µM; in series [4], 4.5 µM; in series [5] it was 6.42 µM. Besides, the Ratio IC50 in series [3] stood at 2.5; in series [7], 1.43. Moreover, the inhibition in [6] amounted to 72.3%.

Consider `COc1cc2c(cc1OC)C(Cc1ccc(OCCCCCCN3CCC(O)(Cc4ccccc4)CC3)cc1)NCC2` (configuration not stated), for which the IC50 was 41.7 µM in series [1], 12.8 µM in [2], 39.6 µM in [4] and 15.9 µM in series [5]. Besides, the Ratio IC50 in series [3] amounted to 0.31; in [7], 0.4. For the same compound, the inhibition in series [6] stood at 62.7%.
